Conditions: Cohort 2 200 mg BID

CC(C)NC(=O)COc1cccc(-c2nc(Nc3ccc4[nH]ncc4c3)c3ccccc3n2)c1 [Belumosudil, 2-{3-[4-(1H-indazol-5-ylamino)-2-quinazolinyl]phenoxy}-N-(propan-2-yl) acetamide]
SAE Cardiac arrest, # events: 0 | SAE Cardiac arrest, affected/at risk: 0/16 | SAE Cellulitis, # events: 1 | SAE Cellulitis, affected/at risk: 1/16 | SAE Chronic graft versus host disease in skin, # events: 1 | SAE Chronic graft versus host disease in skin, affected/at risk: 1/16 | SAE Citrobacter infection, # events: 1 | SAE Citrobacter infection, affected/at risk: 1/16 | SAE Dyspnoea, # events: 1 | SAE Dyspnoea, affected/at risk: 1/16 | SAE Embolism, # events: 1 | SAE Embolism, affected/at risk: 1/16 | SAE Febrile neutropenia, # events: 0 | SAE Febrile neutropenia, affected/at risk: 0/16 | SAE Graft versus host disease in lung, # events: 0 | SAE Graft versus host disease in lung, affected/at risk: 0/16 | SAE Hypoxia, # events: 0 | SAE Hypoxia, affected/at risk: 0/16 | SAE Influenza A virus test positive, # events: 0 | SAE Influenza A virus test positive, affected/at risk: 0/16 | SAE Influenza like illness, # events: 0 | SAE Influenza like illness, affected/at risk: 0/16 | SAE Lacunar infarction, # events: 1 | SAE Lacunar infarction, affected/at risk: 1/16 | SAE Leukaemia recurrent, # events: 0 | SAE Leukaemia recurrent, affected/at risk: 0/16 | SAE Lipomatosis, # events: 0 | SAE Lipomatosis, affected/at risk: 0/16 | SAE Metastases to meninges, # events: 0 | SAE Metastases to meninges, affected/at risk: 0/16 | SAE Muscular weakness, # events: 1 | SAE Muscular weakness, affected/at risk: 1/16 | SAE Myelodysplastic syndrome, # events: 0 | SAE Myelodysplastic syndrome, affected/at risk: 0/16 | SAE Non-cardiac chest pain, # events: 2 | SAE Non-cardiac chest pain, affected/at risk: 1/16 | SAE Obliterative bronchiolitis, # events: 0 | SAE Obliterative bronchiolitis, affected/at risk: 0/16 | SAE Pericardial effusion, # events: 0 | SAE Pericardial effusion, affected/at risk: 0/16 | SAE Pleural effusion, # events: 0 | SAE Pleural effusion, affected/at risk: 0/16 | SAE Pneumonia viral, # events: 0 | SAE Pneumonia viral, affected/at risk: 0/16 | SAE Pneumonia, # events: 1 | SAE Pneumonia, affected/at risk: 1/16 | SAE Pregnancy of partner, # events: 0 | SAE Pregnancy of partner, affected/at risk: 0/16 | SAE Proteinuria, # events: 0 | SAE Proteinuria, affected/at risk: 0/16 | SAE Respirovirus test positive, # events: 1 | SAE Respirovirus test positive, affected/at risk: 1/16 | SAE Small intestinal obstruction, # events: 0 | SAE Small intestinal obstruction, affected/at risk: 0/16 | SAE Stenotrophomonas infection, # events: 1 | SAE Stenotrophomonas infection, affected/at risk: 1/16 | SAE Urinary retention, # events: 0 | SAE Urinary retention, affected/at risk: 0/16 | SAE Urinary tract infection, # events: 1 | SAE Urinary tract infection, affected/at risk: 1/16 | SAE Varicella zoster virus infection, # events: 0 | SAE Varicella zoster virus infection, affected/at risk: 0/16 | SAE total, affected/at risk: 6/16 | Sinus pain: # Events: 0 | Sinus pain: Affected/At Risk: 0/16 | Sinus pain: Affected/At Risk (%): (0%) | Sinusitis: # Events: 4 | Sinusitis: Affected/At Risk: 2/16 | Sinusitis: Affected/At Risk (%): (12.5%) | Skin abrasion: # Events: 0 | Skin abrasion: Affected/At Risk: 0/16 | Skin abrasion: Affected/At Risk (%): (0%) | Skin lesion: # Events: 1 | Skin lesion: Affected/At Risk: 1/16 | Skin lesion: Affected/At Risk (%): (6.25%) | Skin papilloma: # Events: 0 | Skin papilloma: Affected/At Risk: 0/16 | Skin papilloma: Affected/At Risk (%): (0%) | Spinal compression fracture: # Events: 0 | Spinal compression fracture: Affected/At Risk: 0/16 | Spinal compression fracture: Affected/At Risk (%): (0%) | Squamous cell carcinoma of skin: # Events: 2 | Squamous cell carcinoma of skin: Affected/At Risk: 2/16 | Squamous cell carcinoma of skin: Affected/At Risk (%): (12.5%) | Stomatitis: # Events: 1 | Stomatitis: Affected/At Risk: 1/16 | Stomatitis: Affected/At Risk (%): (6.25%) | Superior vena cava syndrome: # Events: 2 | Superior vena cava syndrome: Affected/At Risk: 1/16 | Superior vena cava syndrome: Affected/At Risk (%): (6.25%) | Tachycardia: # Events: 0 | Tachycardia: Affected/At Risk: 0/16 | Tachycardia: Affected/At Risk (%): (0%) | Tendonitis: # Events: 1 | Tendonitis: Affected/At Risk: 1/16 | Tendonitis: Affected/At Risk (%): (6.25%) | Testicular pain: # Events: 0 | Testicular pain: Affected/At Risk: 0/16 | Testicular pain: Affected/At Risk (%): (0%) | Testicular swelling: # Events: 0 | Testicular swelling: Affected/At Risk: 0/16 | Testicular swelling: Affected/At Risk (%): (0%) | Thoracic spinal stenosis: # Events: 0 | Thoracic spinal stenosis: Affected/At Risk: 0/16 | Thoracic spinal stenosis: Affected/At Risk (%): (0%) | Thrombocytopenia: # Events: 1 | Thrombocytopenia: Affected/At Risk: 1/16 | Thrombocytopenia: Affected/At Risk (%): (6.25%) | Thrombocytosis: # Events: 0 | Thrombocytosis: Affected/At Risk: 0/16 | Thrombocytosis: Affected/At Risk (%): (0%) | Tinea pedis: # Events: 1 | Tinea pedis: Affected/At Risk: 1/16 | Tinea pedis: Affected/At Risk (%): (6.25%) | Tooth fracture: # Events: 1 | Tooth fracture: Affected/At Risk: 1/16 | Tooth fracture: Affected/At Risk (%): (6.25%) | Total Other Adverse Events: Affected/At Risk: 16/16 | Total Other Adverse Events: Affected/At Risk (%): (100%) | Transfusion reaction: # Events: 0 | Transfusion reaction: Affected/At Risk: 0/16 | Transfusion reaction: Affected/At Risk (%): (0%) | Tremor: # Events: 2 | Tremor: Affected/At Risk: 1/16 | Tremor: Affected/At Risk (%): (6.25%) | Type 2 diabetes mellitus: # Events: 0 | Type 2 diabetes mellitus: Affected/At Risk: 0/16 | Type 2 diabetes mellitus: Affected/At Risk (%): (0%) | Ulcerative keratitis: # Events: 1 | Ulcerative keratitis: Affected/At Risk: 1/16 | Ulcerative keratitis: Affected/At Risk (%): (6.25%) | Upper respiratory tract infection: # Events: 13 | Upper respiratory tract infection: Affected/At Risk: 9/16 | Upper respiratory tract infection: Affected/At Risk (%): (56.25%) | Upper-airway cough syndrome: # Events: 2 | Upper-airway cough syndrome: Affected/At Risk: 2/16 | Upper-airway cough syndrome: Affected/At Risk (%): (12.5%)
